In assay [1] the test system is choroidal neovascularization (CNV). Briefly: Laser-induced CNV model, intravitreal injection: CNV regression and vascular leakage. The assay is classed as in vivo, mice. Particulars: 5 μg intravitreal at 7 days. The method, then:
2C8H11 antibody was tested for its ability to inhibit choroidal neovascularization (CNV), the hallmark of wet age-related macular degeneration (AMD) using laser-induced CNV model. After dilation of pupils with 5 mg/ml phenylephrine and 5 mg/ml tropicamide eye drops (Santen Pharmaceutical) and instillation of 0.5% proparacaine hydrochloride eye drops (Alcon) for topical anesthesia, laser photocoagulator (Lumenis Inc.) with a slit lamp delivery system was used with a glass coverslip as a contact lens to visualize the retina. Sufficient laser energy (532 nm wavelength, 250 mW power, 100 ms duration, 50 μm spot size) was delivered in 4 locations for each eye (the 3, 6, 9 and 12 o'clock positions of the posterior pole). Only burns that produced a bubble at the time of laser photocoagulation, indicating the rupture of the Bruch's membrane, were included in this study. Spots containing hemorrhage at the laser site were excluded from the analysis. To recapitulate a clinical situation, 2C8H11 (5 μg) was administered intravitreally to the mice at 7 days after laser photocoagulation (FIG. 13A). As a control or as for comparison, Fc or VEGF-Trap (5 μg each) was administered in the same manner to the mice. To intravitreally administer indicated reagents, ˜1 μl (5 mg/ml) containing 5 μg of each reagent was injected into the vitreal cavity using the Nanoliter 2000 micro-injector (World Precision Instruments) fitted with a glass capillary pipette. CD31+CNV volumes of the retinal pigment epithelium (RPE)-choroid-sclera flat mounts were calculated using the MATLAB® Image Processing Toolbox™ (Math Works, a comprehensive set of reference-standard algorithms and workflow apps for image processing, analysis, visualization, and algorithm development) at 14 days after laser photocoagulation. Anti-CD31 antibody (1:200, Millipore®) was used for the detection of endothelial cells of CNV. […] Combined fluorescein angiography (FA) and indocyanine green angiography (ICGA) enabled us to measure vascular leakage at the neovessels around the laser injury site. Continuous-wave laser modules at 488 nm and 785 nm were used as excitation sources for fluorescein and ICG, respectively. A raster scanning pattern of excitation lasers was achieved by a scanner system consisting of a rotating polygonal mirror (MC-5; Lincoln Laser) and a galvanometer-based scanning mirror (6230H; Cambridge technology), and delivered to the back aperture of an imaging lens. A high numerical aperture (NA) objective lens (PlanApo λ, NA 0.75; Nikon) was used as the imaging lens to provide wide-field fundus fluorescence images. Fluorescence signals detected by photomultiplier tubes (R9110; Hamamatsu Photonics) were digitized by frame grabber and reconstructed to images with size of 512×512 pixels per frame in real time. To visualize late-phase (6 min) FA and ICGA images utilizing the angiography system, 10 mg of fluorescein sodium (Alcon) and 0.15 mg of ICG (Daiichi Pharmaceutical) were administered intraperitoneally and intravenously, respectively. The imaging procedure was performed under systemic anesthesia and pupil dilation to improve the quality of images. Leaky areas from CNV were calculated as the total measured hyperfluorescent areas in FA images divided by the total measured CNV areas in ICGA images using a Java-based imaging software (ImajeJ; National Institutes of Health). […] Thus, the magnitude of the suppression of CNV and vascular leakage was quantitatively indistinguishable between VEGF-Trap and 2C8H11 in the mouse model of laser-induced CNV.

Assay [2] concerns choroidal neovascularization (CNV) / choriocapillaris. Description: Laser-induced CNV model, OCTA: CNV volume and choriocapillary regeneration (avascular space). The settings on record: for increased avascular space: 5 μg intravitreal at 7 days. In kind it is in vivo, mice. The method, then: To determine the effect of 2C8H11 in CNV regression and choriocapillary regeneration after establishment of CNV, Fc, VEGF-Trap, control antibody or 2C8H11 (5 μg each) was given intravitreally to the mice by the Nanoliter 2000 micro-injector (World Precision Instruments) at 7 days after laser photocoagulation. Intra-vital optical coherence tomography angiography (OCTA) was performed at 6, 14, 21, and 35 days after laser photocoagulation (FIG. 14A). The retinochoroidal layers were imaged using a prototype high-speed swept-source optical coherence tomography (OCT) system, utilizing a custom ring cavity wavelength-swept laser centered at 1048 nm with an A-scan rate of 230 kHz. OCT images were collected in a 1.7 mm×1.7 mm field of view within the retino-choroidal layer to monitor regeneration of choroidal vasculatures at the site of laser photocoagulation after intravitreal injection of reagents. […] Then, by using automatic layer flattening and segmentation algorithms, cross-sectional OCT angiograms were flattened to RPE, and en face OCT angiograms were generated by separate projection of each flattened cross-sectional OCT angiogram in three depth ranges: inner retinal, outer retinal and choroidal layers. The outer plexiform layer and Bruch's membrane were defined as the boundaries separating inner retinal, outer retinal, and choroidal layers. The density of retina and choroid vessel was automatically calculated as the proportion of measured area occupied by flowing blood vessels defined as pixels having decorrelation values above the threshold level. Avascular pixels were detected from the en face OCT angiogram representing choroidal layer by means of the image processing toolbox of MATLAB® (Math Works). Then the total volume of the avascular space surrounding the laser injury site was calculated by summing the number of avascular pixels multiplied by the volume of one pixel. In order to analyze the changing complexion of avascular space volume, serially measured values in each eye were transformed into percentage change from baseline value. […] Overall, these findings indicate that both 2C8H11 and […] promotes regeneration of the choriocapillaris, while VEGF-Trap leads to choriocapillary regression in the laser-induced CNV model.

A further assay addresses T1, hAng2 (Homo sapiens, UniProt O15123).
T1 sequence (O15123 19-496): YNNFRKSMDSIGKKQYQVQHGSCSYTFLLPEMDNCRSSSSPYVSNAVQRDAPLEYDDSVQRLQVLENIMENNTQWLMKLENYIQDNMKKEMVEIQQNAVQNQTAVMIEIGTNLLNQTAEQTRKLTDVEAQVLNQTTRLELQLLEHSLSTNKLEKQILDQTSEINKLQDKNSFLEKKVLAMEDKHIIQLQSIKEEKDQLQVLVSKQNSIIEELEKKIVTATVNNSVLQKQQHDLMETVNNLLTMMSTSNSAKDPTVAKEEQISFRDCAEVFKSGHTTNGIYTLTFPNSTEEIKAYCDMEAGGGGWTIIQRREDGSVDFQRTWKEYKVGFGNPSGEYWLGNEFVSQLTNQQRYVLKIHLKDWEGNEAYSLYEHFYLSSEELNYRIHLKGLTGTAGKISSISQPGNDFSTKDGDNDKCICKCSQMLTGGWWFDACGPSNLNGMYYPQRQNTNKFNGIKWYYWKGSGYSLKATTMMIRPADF
Description: OCTET affinity of humanized anti-Ang2 antibodies against hAng2. In kind it is binding. Particulars: humanized 4B9 antibodies (IgG1) fixed on AR2G biosensor; hAng2 50-0 nM.

The subject of assay [3] is Tie2 receptor clustering / FOXO1 translocation in HUVECs. Briefly: Tie2 clustering and FOXO1 translocation in HUVECs (immunofluorescence). The assay is classed as cell-based, human. The settings on record: HUVECs; 30 min; compared to serum-starved control. The method, then:
Tie2 clustering at cell-cell junction area and FOXO1 translocation from nucleus to cytosol by anti-Ang2 antibodies were examined in HUVECs by immunofluorescence. Specifically, HUVECs were seeded on 8 well slide chamber (Lab-Tek™ II) and maintained in EGM-2 medium for 2-3 days. At 100% confluence, the cells were serum starved with EBM-2 medium for 4 hrs and then treated with 1 μg/ml anti-Ang2 antibodies together with 1 μg/ml of hAng2 for 30 min. Thereafter, the cells were fixed with 4% formaldehyde in PBS at room temperature (RT) for 10 min, permeabilized with 0.1% TRITON™ X-100 (non-ionic polyoxyethylene surfactant) in PBS, blocked with 1% BSA in PBS at RT for 60 min, and incubated with primary antibodies at RT for 1 hr. The primary antibodies for hTie2, FOXO1, and Human Fc were used. The cells were then incubated with secondary antibodies (Invitrogen) in the dark at RT for 1 hr and mounted with VECTASHIELD® mounting medium with DAPI (Vector Labs, antifade mounting media optimized for immunofluorescence applications). Images were taken with a laser scanning confocal microscope (LSM880, Carl Zeiss).
2C8H11-induced Tie2 clustering and FOXO1 translocation was examined in a time-course study (from 10 min to 240 min). […] 6-4: Inhibition of Vascular Permeability by Humanized Anti-Ang2 Antibodies

With “VEGF-Trap: VEGF-Trap, comparison agent given intravitreally, 5 μg [reference compound]”, in assay [1] (FA/ICGA, 14 days after laser photocoagulation), the “vascular leakage suppression compared with Fc” value worked out at 37.0%. For the same molecule, the “CNV regression compared with Fc (CD31+ CNV volume)” value in assay [1] (measured 14 days after laser photocoagulation) is recorded as 64.4%. Further, the “vascular leakage reduction between 6 and 14 days after laser photocoagulation” value in assay [1] (within-group) is reported as 45.6%. Moreover, the “CNV volume in outer retinas (OCTA)” value in assay [2] (5 μg intravitreal at 7 days after laser photocoagulation) is “markedly reduced CNV volume”. Further, the increased avascular space in assay [2] (D14) came to 11.4%; in assay [2] (D21), 16.0%; in assay [2] (D35), 18.1%.

B1: 4B9H21: humanized anti-Ang2 human IgG1 antibody from mouse 4B9; VH SEQ ID NO: 47, VL SEQ ID NO: 48 (antibody, V domains shown)
VH: QVQLVESGGGLVKPGGSLRLSCAASGFTFSDYYMYWVRQAPGKGLEWVSTISVGGSFTYYPDSVKGRFTISRDNAKNSLYLQMNSLRAEDTAVYYCARDWGLRPWFVYWGQGTLVTVSS
VL: DIQMTQSPSSLSASVGDRVTITCKASQDVSTAVAWYQQKPGKAPKLLIYWASTRHTGVPSRFSGSGSGTDFTLTISSLQPEDFATYYCQQHYSTPPTFGQGTKVEIK
modifications: human IgG1 constant regions; VH; VL
With B1, in the assay with hAng2, the “Kdis” value worked out at 8.94e-06 s⁻¹ and the “Kon” value was found to be 73700 M⁻¹ s⁻¹.

B2: 4B9H31: humanized anti-Ang2 human IgG1 antibody from mouse 4B9; VH SEQ ID NO: 51, VL SEQ ID NO: 52 (antibody, V domains shown)
VH: QVQLVESGGGLVKPGGSLRLSCAASGFTFSDYYMYWVRQAPGKGLEWVATISVGGSFTYYPDSVKGRFTISRDNAKNSLYLQMNSLRAEDTAVYYCARDWGLRPWFVYWGQGTLVTVSS
VL: DIQMTQSPSSLSASVGDRVTITCKASQDVSTAVAWYQQKPGKAPKLLIYWASTRHTGVPSRFSGSGSGTDFTLTISSLQPEDFATYYCQQHYSTPPTFGQGTKVEIK
modifications: human IgG1 constant regions; VH; VL
For B2, in the assay with hAng2, the “Kdis” value is 1.56e-05 s⁻¹ and the “Kon” value stood at 93900 M⁻¹ s⁻¹.

B3: Ang2: full-length human angiopoietin-2 protein (R&D Systems), Tie2 ligand, SEQ ID NO: 1 (protein)
chain: MWQIVFFTLSCDLVLAAAYNNFRKSMDSIGKKQYQVQHGSCSYTFLLPEMDNCRSSSSPYVSNAVQRDAPLEYDDSVQRLQVLENIMENNTQWLMKLENYIQDNMKKEMVEIQQNAVQNQTAVMIEIGTNLLNQTAEQTRKLTDVEAQVLNQTTRLELQLLEHSLSTNKLEKQILDQTSEINKLQDKNSFLEKKVLAMEDKHIIQLQSIKEEKDQLQVLVSKQNSIIEELEKKIVTATVNNSVLQKQQHDLMETVNNLLTMMSTSNSAKDPTVAKEEQISFRDCAEVFKSGHTTNGIYTLTFPNSTEEIKAYCDMEAGGGGWTIIQRREDGSVDFQRTWKEYKVGFGNPSGEYWLGNEFVSQLTNQQRYVLKIHLKDWEGNEAYSLYEHFYLSSEELNYRIHLKGLTGTAGKISSISQPGNDFSTKDGDNDKCICKCSQMLTGGWWFDACGPSNLNGMYYPQRQNTNKFNGIKWYYWKGSGYSLKATTMMIRPADF
modifications: Human Angiopoietin-2 full-length
B3: the “FOXO1 translocation from nucleus to cytosol” value in assay [3] was “negligibly induced”.

The record behind these values is US12331106B2, “Anti-angiopoietin-2 antibodies that induce Tie2 activation” (Institute for Basic Science, priority 2018, dated 2025).
